Measured values as given in article PMC10957897, “An evolutionary mechanism to assimilate new nutrient sensors into the mTORC1 pathway” (Nature Communications, 2024).
Substitutions are numbered along the chain they refer to.

Experiments:
[1] = molecular target: T1, Unmet expectations (Unmet; CG11596) (Drosophila melanogaster, UniProt Q9I7X6); experiment: competition with [3H]SAM binding to purified protein on anti-FLAG beads; settings: 5 μM [3H]SAM, pH 7.4, on ice
T1 construct: FLAG-tagged, tag kept; pRK5 vector, expressed in suspension HEK-293T cells
T1 sequence (Q9I7X6 1-456): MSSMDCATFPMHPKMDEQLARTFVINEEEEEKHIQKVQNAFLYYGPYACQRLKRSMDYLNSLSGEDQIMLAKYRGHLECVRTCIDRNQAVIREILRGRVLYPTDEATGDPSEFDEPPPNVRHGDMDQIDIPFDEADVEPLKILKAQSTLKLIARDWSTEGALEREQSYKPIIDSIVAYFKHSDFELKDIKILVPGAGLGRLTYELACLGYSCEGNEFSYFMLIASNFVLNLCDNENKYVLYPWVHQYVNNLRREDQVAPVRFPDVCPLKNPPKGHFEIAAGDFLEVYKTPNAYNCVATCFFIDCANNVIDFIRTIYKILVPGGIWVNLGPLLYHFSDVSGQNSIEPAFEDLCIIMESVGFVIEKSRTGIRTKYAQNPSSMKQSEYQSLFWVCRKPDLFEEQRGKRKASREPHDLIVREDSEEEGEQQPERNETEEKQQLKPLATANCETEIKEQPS

[2] = molecular target: T2, Unmet expectations (Unmet; CG11596) (Drosophila melanogaster, UniProt Q9I7X6, E30A); experiment: [3H]SAM binding to purified protein on anti-FLAG beads; settings: 5 μM [3H]SAM with or without unlabeled SAM, pH 7.4, on ice; labelled compound
T2 construct: FLAG-tagged, tag kept; pRK5 vector, expressed in suspension HEK-293T cells
T2 sequence (Q9I7X6 1-456 E30A): T1 sequence (Q9I7X6 1-456) with E30A

Nc1ncnc2c1ncn2[C@@H]1O[C@H](CSCC[C@H](N)C(=O)O)[C@@H](O)[C@H]1O [SAH] was tested, and the “competition with [3H]SAM binding to purified protein on anti-FLAG beads” value [1] was “it readily competes with labeled SAM for binding to Unmet”.

C[S+](CC[C@H](N)C(=O)O)C[C@H]1O[C@@H](n2cnc3c(N)ncnc32)[C@H](O)[C@@H]1O (stereo partly drawn) [SAM] was tested, and the SAM-binding capacity [2] was “The E30A mutant of Unmet does not interact with dGATOR2 but maintains its SAM-binding capacity”.

In the case of Nc1ncnc2c1ncn2[C@@H]1O[C@H](C[C@@H](N)CC[C@H](N)C(=O)O)[C@@H](O)[C@H]1O [sinefungin], the “competition with [3H]SAM binding to purified protein on anti-FLAG beads” value [1] is reported as “also competes with labeled SAM for binding to Unmet”.
